Laboratory results: publication PMC11505670, “Four newly synthesized enones induce mitochondrial-mediated apoptosis and G2/M cell cycle arrest in colorectal and cervical cancer cells” (RSC Advances, 2024)

Tests used:
Assay type in all cases: cell-based, human
HeLa cells [1] = assay: MTT cytotoxicity assay, HeLa; conditions: for Selectivity index (SI): IC50 healthy cells (MRC-5)/IC50 tumor cells; for Cytotoxicity range: concentration range 1–100 μM; for IC50: Homo sapiens, MTT
Method: (§1) To examine and compare the antiproliferative activities of four enones, the cytotoxicity of the compounds was assessed by the 3-(4,5-dimethylthiazol-2-yl)-2,5-diphenyltetrazolium bromide (MTT) assay[9] in, colon cancer cells (HCT-116), cervical cancer cell line (HeLa) and human fibroblast lung cell line (MRC-5) that was used as a healthy control cell line. After trypsinization, seeded (5 × 10^3 cells per well in 96-well plates) cells were treated with different concentrations of the investigated enones (1, 3, 10, 30, and 100 μM) during 48 and 72 h period incubation period +37 °C and 5–6.5% CO2. After the incubation period, the medium was removed and MTT solution (5 mg ml^−1) was added to the wells.
(§2) After a 3 hour incubation with the MTT solution, the resulting formazan crystals were dissolved in DMSO (67-68-5, Merck). Absorbance was subsequently measured at 595 nm using a microplate reader (Zenith 3100, Anthos Labtech Instruments). The percentage of cytotoxic cells was determined using the formula: cytotoxicity (%) = (1 − (exp. group (ABS))/(control group (ABS)) × 100). IC50 values were calculated using GraphPad Prism 10 software. The selectivity index (SI) was determined using the formula: SI?IC50 value for healthy cells/IC50 value for tumor cells.[9]

[2] = system: active caspase-3 in HeLa cells; assay: Flow cytometric analysis of active caspase-3, HeLa; conditions: IC50 concentration, 48 h, vs control
Method: (§3) Cells were washed with PBS, fixed, permeabilized using Fixation and Permeabilization Kit (eBioscience), and stained separately for Bcl-2, Bax, and cleaved-caspase-3.[8,9] Permeabilized cells were incubated with primary antibodies: mouse anti-human-Bcl-2 (DC21, sc-783, Santa Cruz Biotech. Inc.), mouse anti-human Bax (N20, sc-493, Santa Cruz Biotech. Inc.), and anti-cleaved caspase-3 (Cell signaling Technology 9661). Following antibody incubation, cells were washed and incubated with secondary Alexa 488-conjugated antibodies (ab185015, Abcam, United Kingdom) for 30 minutes. After an additional wash with PBS, flow cytometry analysis was performed.
(§4) Data were analyzed using FlowJo Software. The expression of Bcl-2 and Bax proteins was quantified as mean fluorescence intensity (MFI). The results were presented with bar graphs. Bax/Bcl-2 index was calculated using the formula […]. The percentage of cells expressing active caspase-3 (MFI) was presented in histograms.

[3] = system: active caspase-3 in HCT-116 cells; assay: Flow cytometric analysis of active caspase-3, HCT-116; conditions: IC50 concentration, 48 h, vs control
Method: as §3, §4

MRC-5 cells = assay: MTT cytotoxicity assay, MRC-5 healthy control cells; conditions: Homo sapiens
Method: as §1, §2

HeLa cells [4] = assay: Cell cycle analysis (PI, flow cytometry), HeLa; conditions: IC50 concentration, 48 h; control 29.9%
Method: (§5) After treatment of HCT-116 and HeLa cells with enones, cells were harvested, washed with PBS, and fixed in 70% ice-cold ethanol at +4 °C overnight.[10] The cells were then pelleted, resuspended in 1 ml PBS containing RNAse A (12091021, Sigma Aldrich), and incubated for 30 min at 37 °C. A staining solution containing propidium iodide (1 mg PI per ml PBS) (B7758, Biotrend) was added to cells, followed by 15 min incubation in the dark. Cells were analyzed by flow cytometer Cytomics FC500. DNA content was determined using Flowing Software and cell cycle distribution was presented by graph (histograms).

[5] = system: cytochrome c in HCT-116 cells; assay: Cytochrome c localization by immunofluorescence, HCT-116; conditions: IC50 concentration, 48 h
Method: After 48 hours of treatment, immunofluorescence analysis of cytochrome c distribution and expression in treated cells was performed using glass coverslips.[10] Following the treatment, cells were washed with PBS, fixed in 4% formaldehyde for 20 min, and permeabilized with 0.2% Tween-20. Blocking was performed using a buffer containing 0.1% Tween-20 and 10% FBS for 30 min. The cells were then incubated for 1 hour at room temperature with a monoclonal mouse anti-human cytochrome c antibody (1:100, G7421, Promega, USA,)
Subsequently, the cells were incubated for 30 minutes with a goat anti-mouse FITC (1:200, diluted in blocking buffer), washed, and images were acquired using an inverted fluorescence microscope (Olympus IX50). Image analysis was performed using ImageJ software.

HCT-116 cells [6] = assay: MTT cytotoxicity assay, HCT-116; conditions: for Cytotoxicity range: concentration range 1–100 μM; for Selectivity index (SI): IC50 healthy cells (MRC-5)/IC50 tumor cells; for IC50: Homo sapiens, MTT
Method: as §1, §2

HCT-116 cells [7] = assay: Cell cycle analysis (PI, flow cytometry), HCT-116; conditions: IC50 concentration, 48 h; control 27.4%
Method: as §5

HCT-116 cells [8] = assay: Annexin V-FITC/7-AAD apoptosis flow cytometry, HCT-116; conditions: IC50 concentration, 48 h
Method: (§6) The type of cell death was assessed using flow cytometry using FITC Annexin V Apoptosis Detection Kit with 7-AAD (640922, Bio legend).[8] […] After treatment, cells were harvested, washed with PBS (resuspended in 100 μl of ice-cold 1X binding buffer), stained (20 μl of 7-AAD and 10 μl of Annexin V-FITC), and incubated in the dark for 15 min at +4 °C. After incubation, 400 μl of binding buffer was added and the samples were analyzed using flow cytometer Cytomics FC500 (Beckman Coulter, USA). Data analysis was performed using FlowJo Software and presented with histogram and dot plots.

HeLa cells [9] = assay: Annexin V-FITC/7-AAD apoptosis flow cytometry, HeLa; conditions: IC50 concentration, 48 h
Method: as §6

[10] = system: Bax and Bcl-2 in HeLa cells; assay: Flow cytometric analysis of Bax and Bcl-2 expression, HeLa; conditions: IC50 concentration, 48 h
Method: as §3, §4

[11] = system: mitochondrial membrane potential (ΔΨm) in HeLa cells; assay: Mitochondrial membrane potential (ΔΨm) JC-10 analysis, HeLa; conditions: IC50 concentration, 48 h
Method: (§7) Changes in the ΔΨm caused by 48 hours of enones treatment, were assessed using JC-10 dye.[10]. (Enzo Life Sciences, Farmingdale, NY, USA).
(§8) In healthy cells, JC-10 dye accumulates in the mitochondria as red fluorescent aggregates. However, upon cell damage, changes in ΔΨm occur and result in dislocation of JC-10 from the mitochondria to the cytosol and the monomerization of aggregates, shifting fluorescence from red to green. Cells were cultured in 24-well plate (3 × 10^4 cells per well) overnight in the incubator (5% CO2, 37 °C). […] Following treatment, cells were washed with warm 1xPBS and incubated with JC-10 dye (2.5 μM in warm PBS) at 5% CO2, 37 °C for 20 minutes. Cells were then washed with 1xPBS and observed using an Olympus IX50 inverted fluorescence microscope. Images were captured and analyzed using ImageJ software. The ratio of fluorescence emissions at 525 and 590 nm was used for quantification analysis.

[12] = system: mitochondrial membrane potential (ΔΨm) in HCT-116 cells; assay: Mitochondrial membrane potential (ΔΨm) JC-10 analysis, HCT-116; conditions: IC50 concentration, 48 h
Method: as §7, §8

[13] = system: Bax and Bcl-2 in HCT-116 cells; assay: Flow cytometric analysis of Bax and Bcl-2 expression, HCT-116; conditions: HCT-116, IC50 concentration, 48 h, from MFI
Method: as §3, §4

COc1cc(/C=C/C(=O)C(C)C)ccc1OCC(=O)O [E2, (E)-2-(2-Methoxy-4-(4-methyl-3-oxopent-1-en-1-yl)phenoxy)acetic acid]
Selectivity index (SI) (HeLa cells [1]; 48 h): 14.96
Cytotoxicity range (HeLa cells [1]; 48 h): 4.74–51.94%
Selectivity index (SI) (HeLa cells [1]; 72 h): 26.23
Cytotoxicity range (HeLa cells [1]; 72 h): 32.98–71.66%
IC50 (HeLa cells [1]; 48 h): 13.4 ± 1.43 µM
IC50 (HeLa cells [1]; 72 h): 3.43 ± 0.09 µM
MFI of active caspase-3 in HeLa (fold change) [2]: 2 fold change
MFI of active caspase-3 in HCT-116 (fold change) [3]: 2.4 fold change
IC50 (MRC-5 cells; MRC5, MRC-5, 48 h): > 200 µM
IC50 (MRC-5 cells; MRC5, MRC-5, 72 h): > 90 µM
% OF HELA CELLS, G2/M (HeLa cells [4]): 66%
RELATIVE RATIO OF CYTOSOL CYTC TO MITOCHONDRIAL CYT C IN HCT-116 CELLS [5]: 1.5
percentage of cytotoxic HCT-116 cells compared to HeLa cells (fold) (HCT-116 cells [6]; 48 h, over the applied doses): 1.3–2.3 fold
percentage of cytotoxic HCT-116 cells compared to control MRC-5 cells (fold) (HCT-116 cells [6]; 48 h, over the applied doses): 2.9–5.2 fold
Cytotoxicity range (HCT-116 cells [6]; HCT-116, 48 h): 10.87–71.88%
Selectivity index (SI) (HCT-116 cells [6]; HCT-116, 48 h): 39.22
Cytotoxicity range (HCT-116 cells [6]; HCT-116, 72 h): 65.23–72.73%
Selectivity index (SI) (HCT-116 cells [6]; HCT-116, 72 h): 100.63
IC50 (HCT-116 cells [6]; HCT-116, 48 h): 5.1 ± 0.92 µM
IC50 (HCT-116 cells [6]; HCT-116, 72 h): 0.9 ± 0.02 µM
% OF HCT-116 CELLS, G2/M (HCT-116 cells [7]): 56.1%
increase of percentage of apoptotic HCT-116 cells compared to control HCT-116 cells (HCT-116 cells [8]): 8.8 fold
percentage of total apoptotic HCT-116 cells (sum of early and late) (HCT-116 cells [8]): 61.6%
total percentage of apoptotic HeLa cells (HeLa cells [9]): 54.02%
Bax/Bcl-2 ratio ([10]; from MFI): 1.4
Bcl-2 protein expression vs control cells ([10]; p < 0.05): decreased
JC10-green/JC10 red ratio in HeLa cells [11]: 1.9
JC10-green/JC10 red ratio in HCT-116 cells [12]: 2.15
Bax/Bcl-2 ratio [13]: 1.9
